# Laboratory results reported in patent US20160135464A1, “PESTICIDAL COMPOSITIONS AND PROCESSES RELATED THERETO” (Dow AgroSciences LLC, priority 2014, published 2016).
# Columns and labels:
# [1] = system: Beet Armyworm (BAW) (Spodoptera exigua); experiment: Bioassay on beet armyworm (BAW), 128-well diet tray assay, percent mortality; assay type: in vivo; conditions: for pest or weed control at 50 µg/cm2, 50 µg/cm2: Spodoptera exigua, 50 μg/cm^2
# Description: (§1) Certain molecules disclosed in this document were tested against BAW and CEW using procedures described in the following examples. In the reporting of the results, the “BAW & CEW Rating Table” was used (See Table Section).
# Bioassays on BAW (Spodoptera exigua)
# Bioassays on BAW were conducted using a 128-well diet tray assay. One to five second instar BAW larvae were placed in each well (3 mL) of the diet tray that had been previously filled with 1 mL of artificial diet to which 50 μg/cm^2 of the test compound (dissolved in 50 μL of 90:10 acetone-water mixture) had been applied (to each of eight wells) and then allowed to dry. Trays were covered with a clear self-adhesive cover and held at 25° C., 14:10 light-dark for five to seven days. Percent mortality was recorded for the larvae in each well; activity in the eight wells was then averaged. The results are indicated in the table entitled “Table 5: Biological Results” (See Table Section).
# [2] = system: Corn Earworm (CEW) (Helicoverpa zea); experiment: Bioassay on corn earworm (CEW), 128-well diet tray assay, percent mortality; assay type: in vivo; conditions: for pest or weed control at 50 µg/cm2, 50 µg/cm2: Helicoverpa zea, 50 μg/cm^2
# Description: as §1
# Bioassays on CEW (Helicoverpa zea)
# Bioassays on CEW were conducted using a 128-well diet tray assay. One to five second instar CEW larvae were placed in each well (3 mL) of the diet tray that had been previously filled with 1 mL of artificial diet to which 50 μg/cm^2 of the test compound (dissolved in 50 μL of 90:10 acetone-water mixture) had been applied (to each of eight wells) and then allowed to dry. Trays were covered with a clear self-adhesive cover and held at 25° C., 14:10 light-dark for five to seven days. Percent mortality was recorded for the larvae in each well; activity in the eight wells was then averaged. The results are indicated in the table entitled “Table 5: Biological Results” (See Table Section).
Structure (SMILES),"pest or weed control at 50 µg/cm2, 50 µg/cm2 [1] [%]","pest or weed control at 50 µg/cm2, 50 µg/cm2 [2] [%]",% Mortality BAW 50 μg/cm^2 [1],% Mortality CEW 50 μg/cm^2 [2]
"CC(C)c1ccccc1N1C(=NN=Cc2ccc(-c3ncn(-c4ccc(OC(F)(F)F)cc4)n3)cc2)SCC1(O)C(F)(F)F (stereo in doubt) [Compound 246C, (Z)-3-(2-isopropylphenyl)-2-((E)-(4-(1-(4-(trifluoromethoxy)phenyl)-1H-1,2,4-triazol-3-yl)benzylidene)hydrazono)-4-(trifluoromethyl)thiazolidin-4-ol]",50 to 100,50 to 100,–,–
Cc1cccc(C)c1/N=C(/N/N=C/c1ccc(-c2ncn(-c3ccc(OC(F)(F)F)cc3)n2)cc1)SCC#C[Si](C)(C)C [Compound 9C],–,–,A (50-100),A (50-100)
COCCOC(C)C(=O)OCS/C(=N\c1c(C)cccc1C)N/N=C/c1ccc(-c2ncn(-c3ccc(OC(F)(F)F)cc3)n2)cc1 (stereo not drawn) [Compound 41C],50 to 100,50 to 100,–,–
COCCOC(C)C(=O)OCS/C(=N\c1c(C)cc(OC)cc1C)N/N=C/c1ccc(-c2ncn(-c3ccc(OC(F)(F)F)cc3)n2)cc1 (stereo not drawn) [Compound 42C],50 to 100,50 to 100,–,–
COc1cc(C)c(/N=C(/N/N=C/c2ccc(-c3ncn(-c4ccc(OC(F)(F)C(F)(F)F)cc4)n3)cc2)SCC(=O)O)c(C)c1 [Compound 50C],50 to 100,50 to 100,–,–
COc1cc(C)c(N2C(=O)CS/C2=N\N=C\c2ccc(-c3ncn(-c4ccc(OC(F)(F)F)cc4)n3)cc2)c(C)c1 [Compound 69C],50 to 100,50 to 100,–,–
"CCN(CC)c1ccc(-c2cs/c(=N\N=Cc3ccc(-c4ncn(-c5ccc(OC(F)(F)F)cc5)n4)cc3)n2-c2c(C)cccc2C)cc1 [Compound 74C, 4-((2Z)-3-(2,6-dimethylphenyl)-2-((4-(1-(4-(trifluoromethoxy)phenyl)-1H-1,2,4-triazol-3-yl)benzylidene)hydrazono)-2,3-dihydrothiazol-4-yl)-N,N-diethylaniline]",50 to 100,50 to 100,–,–
COc1ccc(N2C(=O)CS/C2=N\N=C\c2ccc(-c3ncn(-c4ccc(OC(F)(F)F)cc4)n3)cc2)cc1 [Compound 114C],50 to 100,50 to 100,–,–
CC1S/C(=N\N=C\c2ccc(-c3ncn(-c4ccc(OC(F)(F)F)cc4)n3)cc2)N(c2c(F)cccc2Cl)C1=O (stereo not drawn) [Compound 130C],50 to 100,50 to 100,–,–
Cc1cccc(C)c1N1CCS/C1=N\N=C\c1ccc(-c2ncn(-c3ccc(OC(F)(F)F)cc3)n2)cc1 [Compound 141C],50 to 100,50 to 100,–,–
Cc1ccccc1-n1c(C)cs/c1=N\N=C\c1ccc(-c2ncn(-c3ccc(OC(F)(F)F)cc3)n2)cc1 [Compound 173C],50 to 100,50 to 100,–,–
CC(C)c1ccccc1N1CCCCC/S1=N\N=C\c1ccc(-c2ncn(-c3ccc(OC(F)(F)F)cc3)n2)cc1 (stereo not drawn) [Compound 212C],50 to 100,50 to 100,–,–
CC1(O)CS/C(=N\N=C\c2ccc(-c3ncn(-c4ccc(OC(F)(F)F)cc4)n3)cc2)N1c1c(F)cccc1F (stereo not drawn) [Compound 240C],50 to 100,50 to 100,–,–
"CC1(O)CS/C(=N\c2c(Cl)cccc2C(F)(F)F)N1/N=C/c1ccc(-c2ncn(-c3ccc(OC(F)(F)F)cc3)n2)cc1 (stereo not drawn) [Compound 241C, (Z)-2-((2-chloro-6-(trifluoromethyl)phenyl)imino)-4-methyl-3-((E)-(4-(1-(4-(trifluoromethoxy)phenyl)-1H-1,2,4-triazol-3-yl)benzylidene)amino)thiazolidin-4-ol]",50 to 100,50 to 100,–,–
Cc1cccc(Cl)c1N1/C(=N/N=C/c2ccc(-c3ncn(-c4ccc(OC(F)(F)F)cc4)n3)cc2)SCC1(C)O (stereo not drawn) [Compound 244C],50 to 100,50 to 100,–,–
CCC(C)c1ccccc1N1/C(=N/N=C/c2ccc(-c3ncn(-c4ccc(OC(F)(F)F)cc4)n3)cc2)SCC1(O)C(F)(F)F (stereo not drawn) [Compound 247C],50 to 100,50 to 100,–,–
CC1(O)CS/C(=N\N=C\c2ccc(-c3ncn(-c4ccc(OC(F)(F)F)cc4)n3)cc2)N1c1ccccc1C1CCCC1 (stereo not drawn) [Compound 249C],50 to 100,50 to 100,–,–
Cc1cccc(N2/C(=N/N=C/c3ccc(-c4ncn(-c5ccc(OC(F)(F)F)cc5)n4)cc3)SCC2(C)O)c1C(C)C (stereo not drawn) [Compound 252C],50 to 100,50 to 100,–,–
Cc1ccc(C(C)C)c(N2/C(=N/N=C/c3ccc(-c4ncn(-c5ccc(OC(F)(F)F)cc5)n4)cc3)SCC2(C)O)c1 (stereo not drawn) [Compound 253C],50 to 100,50 to 100,–,–
COc1cc(C)c(N2/C(=N/N=C/c3ccc(-c4ncn(-c5ccc(OC(F)(F)F)cc5)n4)cc3)SCC2(C)O)c(C)c1 (stereo not drawn) [Compound 255C],50 to 100,50 to 100,–,–
CC(C)c1ccccc1N1/C(=N/N=C/c2ccc(-c3ncn(-c4ccc(OC(F)(F)F)cc4)n3)cc2)SC(C)C1(C)O (stereo not drawn) [Compound 257C],50 to 100,50 to 100,–,–
CC(C)c1cc(F)ccc1N1/C(=N/N=C/c2ccc(-c3ncn(-c4ccc(OC(F)(F)F)cc4)n3)cc2)SCC1(C)O (stereo not drawn) [Compound 258C],50 to 100,50 to 100,–,–
CC(C)c1cc(F)c(F)cc1N1/C(=N/N=C/c2ccc(-c3ncn(-c4ccc(OC(F)(F)F)cc4)n3)cc2)SCC1(C)O (stereo not drawn) [Compound 259C],50 to 100,50 to 100,–,–
CC(C)c1ccccc1N1/C(=N/N=C/c2ccc(-c3ncn(-c4ccc(C(F)(C(F)(F)F)C(F)(F)F)cc4)n3)cc2)SCC1(C)O (stereo not drawn) [Compound 260C],50 to 100,50 to 100,–,–
CC(C)c1ccccc1N1/C(=N/N=C/c2ccc(-c3ncn(-c4ccc(C(F)(F)F)cc4)n3)cc2)SCC1(C)O (stereo not drawn) [Compound 261C],50 to 100,50 to 100,–,–
CCc1cc(OC)ccc1N1/C(=N/N=C/c2ccc(-c3ncn(-c4ccc(OC(F)(F)C(F)(F)F)cc4)n3)cc2)SCC1(C)O (stereo not drawn) [Compound 264C],50 to 100,–,–,–
